Columns and labels:
Type in all cases: in vivo
[1] = system: ryegrass, Italian (Italian ryegrass, Lolium multiflorum); test: Test A preemergence, ryegrass, Italian; settings: 0 to 100 scale
Description: (§1) Seeds of plant species selected from barnyardgrass (Echinochloa crus-galli), kochia (Kochia scoparia), ragweed (common ragweed, Ambrosia elation), ryegrass, Italian (Italian ryegrass, Lolium multiflorum), foxtail, green (green foxtail, Setaria viridis), and pigweed (Amaranthus retroflexus) were planted into a blend of loam soil and sand and treated preemergence with a directed soil spray using test chemicals formulated in a non-phytotoxic solvent mixture which included a surfactant. At the same time, plants selected from these weed species and also wheat (Triticum aestivum), corn (Zea mays), blackgrass (Alopecurus myosuroides), and galium (catchweed bedstraw, Galium aparine) were planted in pots containing the same blend of loam soil and sand and treated with postemergence applications of test chemicals formulated in the same manner Plants ranged in height from 2 to 10 cm and were in the one- to two-leaf stage for the postemergence treatment. Treated plants and untreated controls were maintained in a greenhouse for approximately 10 d, after which time all treated plants were compared to untreated controls and visually evaluated for injury. Plant response ratings, summarized in Table A, are based on a 0 to 100 scale where 0 is no effect and 100 is complete control. A dash (—) response means no test result.

[2] = system: wheat (Triticum aestivum); test: Test A postemergence, wheat; settings: 0 to 100 scale
Description: as §1

[3] = system: pigweed (Amaranthus retroflexus); test: Test A postemergence, pigweed; settings: 0 to 100 scale
Description: as §1

[4] = system: kochia (Kochia scoparia); test: Test A preemergence, kochia; settings: 0 to 100 scale
Description: as §1

[5] = system: foxtail, green (green foxtail, Setaria viridis); test: Test A postemergence, foxtail, green; settings: 0 to 100 scale
Description: as §1

[6] = system: pigweed (Amaranthus retroflexus); test: Test A preemergence, pigweed; settings: 0 to 100 scale
Description: as §1

[7] = system: barnyardgrass (Echinochloa crus-galli); test: Test A preemergence, barnyardgrass; settings: 0 to 100 scale
Description: as §1

[8] = system: sedge, umbrella (small-flower umbrella sedge, Cyperus difformis); test: Test B flooded paddy test, sedge, umbrella; settings: Flood, 250 g ai/ha; scale of 0 to 100
Procedure: (§2) Plant species in the flooded paddy test selected from rice (Oryza sativa), sedge, umbrella (small-flower umbrella sedge, Cyperus difformis), ducksalad (Heteranthera limosa), and barnyardgrass (Echinochloa crus-galli) were grown to the 2-leaf stage for testing. At the time of treatment, test pots were flooded to 3 cm above the soil surface, treated by application of test compounds directly to the paddy water, and then maintained at that water depth for the duration of the test. Treated plants and controls were maintained in a greenhouse for 13 to 15 d, after which time all species were compared to controls and visually evaluated. Plant response ratings, summarized in Table B, are based on a scale of 0 to 100 where 0 is no effect and 100 is complete control. A dash (—) response means no test result.

[9] = system: kochia (Kochia scoparia); test: Test A postemergence, kochia; settings: 0 to 100 scale
Description: as §1

[10] = system: ragweed (common ragweed, Ambrosia elation); test: Test A preemergence, ragweed; settings: 0 to 100 scale
Description: as §1

[11] = system: barnyardgrass (Echinochloa crus-galli); test: Test B flooded paddy test, barnyardgrass; settings: Flood, 250 g ai/ha; scale of 0 to 100, 0 no effect, 100 complete control
Procedure: as §2

[12] = system: galium (catchweed bedstraw, Galium aparine); test: Test A postemergence, galium; settings: 0 to 100 scale
Description: as §1

[13] = system: rice (Oryza sativa); test: Test B flooded paddy test, rice; settings: Flood, 250 g ai/ha; scale of 0 to 100
Procedure: as §2

[14] = system: ryegrass, Italian (Italian ryegrass, Lolium multiflorum); test: Test A postemergence, ryegrass, Italian; settings: 0 to 100 scale
Description: as §1

[15] = system: blackgrass (Alopecurus myosuroides); test: Test A postemergence, blackgrass; settings: 0 to 100 scale
Description: as §1

[16] = system: foxtail, green (green foxtail, Setaria viridis); test: Test A preemergence, foxtail, green; settings: 0 to 100 scale
Description: as §1

[17] = system: corn (Zea mays); test: Test A postemergence, corn; settings: 0 to 100 scale
Description: as §1

[18] = system: barnyardgrass (Echinochloa crus-galli); test: Test A postemergence, barnyardgrass; settings: 0 to 100 scale
Description: as §1

[19] = system: ducksalad (Heteranthera limosa); test: Test B flooded paddy test, ducksalad; settings: Flood, 250 g ai/ha; scale of 0 to 100
Procedure: as §2

[20] = system: ragweed (common ragweed, Ambrosia elation); test: Test A postemergence, ragweed; settings: 0 to 100 scale
Description: as §1

[21] = 125 g ai/ha, 0 no effect, 100 complete control

## Cn1nc(Cl)c(O)c(-c2c3ccccc3cc3ccccc23)c1=O [Compound 1, 4-(9-anthracenyl)-6-chloro-5-hydroxy-2-methyl-3(2H)-pyridazinone]
[1]; 31 g ai/ha
  Plant response rating, Ryegrass, Italian: 20
[1]; 125 g ai/ha
  Plant response rating, Ryegrass, Italian: 30
[2]; 31 g ai/ha
  Plant response rating, Wheat: 0
[2]; 125 g ai/ha
  Plant response rating, Wheat: 10
[3]; 31 g ai/ha
  Plant response rating, Pigweed: 90
[3]; 125 g ai/ha
  Plant response rating, Pigweed: 100
[4]; 31 g ai/ha
  Plant response rating, Kochia: 0
[4]; 125 g ai/ha
  Plant response rating, Kochia: 20
[5]; 31 g ai/ha
  Plant response rating, Foxtail, Green: 10
[5]; 125 g ai/ha
  Plant response rating, Foxtail, Green: 50
[6]; 31 g ai/ha
  Plant response rating, Pigweed: 100
[6]; 125 g ai/ha
  Plant response rating, Pigweed: 100
[7]; 31 g ai/ha
  Plant response rating, Barnyardgrass: 0
[7]; 125 g ai/ha
  Plant response rating, Barnyardgrass: 0
[8]
  Plant response rating, Sedge, Umbrella: 90
[9]; 31 g ai/ha
  Plant response rating, Kochia: 10
[9]; 125 g ai/ha
  Plant response rating, Kochia: 20
[10]; 31 g ai/ha
  Plant response rating, Ragweed: 70
[10]; 125 g ai/ha
  Plant response rating, Ragweed: 100
[11]
  Plant response rating, Barnyardgrass: 20
[12]; 31 g ai/ha
  Plant response rating, Galium: 70
[12]; 125 g ai/ha
  Plant response rating, Galium: 90
[13]
  Plant response rating, Rice: 0
[14]; 31 g ai/ha
  Plant response rating, Ryegrass, Italian: 20
[14]; 125 g ai/ha
  Plant response rating, Ryegrass, Italian: 40
[15]; 31 g ai/ha
  Plant response rating, Blackgrass: 0
[15]; 125 g ai/ha
  Plant response rating, Blackgrass: 10
[16]; 31 g ai/ha
  Plant response rating, Foxtail, Green: 0
[16]; 125 g ai/ha
  Plant response rating, Foxtail, Green: 0
[17]; 31 g ai/ha
  Plant response rating, Corn: 0
[17]; 125 g ai/ha
  Plant response rating, Corn: 0
[18]; 31 g ai/ha
  Plant response rating, Barnyardgrass: 0
[18]; [21]
  Plant response rating, Barnyardgrass: 20
[19]
  Plant response rating, Ducksalad: 85
[20]; 31 g ai/ha
  Plant response rating, Ragweed: 80
[20]; 125 g ai/ha
  Plant response rating, Ragweed: 90

## Cn1nc(Cl)c(O)c(-c2c3ccccc3c(Br)c3ccccc23)c1=O [Compound 3, 4-(10-bromo-9-anthracenyl)-6-chloro-5-hydroxy-2-methyl-3(2H)-pyridazinone]
[1]; 31 g ai/ha
  Plant response rating, Ryegrass, Italian: 20
[1]; 125 g ai/ha
  Plant response rating, Ryegrass, Italian: 80
[2]; 31 g ai/ha
  Plant response rating, Wheat: 20
[2]; 125 g ai/ha
  Plant response rating, Wheat: 60
[3]; 31 g ai/ha
  Plant response rating, Pigweed: 100
[3]; 125 g ai/ha
  Plant response rating, Pigweed: 100
[4]; 31 g ai/ha
  Plant response rating, Kochia: 0
[4]; 125 g ai/ha
  Plant response rating, Kochia: 50
[5]; 31 g ai/ha
  Plant response rating, Foxtail, Green: 40
[5]; 125 g ai/ha
  Plant response rating, Foxtail, Green: 90
[6]; 31 g ai/ha
  Plant response rating, Pigweed: 100
[6]; 125 g ai/ha
  Plant response rating, Pigweed: 100
[7]; 31 g ai/ha
  Plant response rating, Barnyardgrass: 0
[7]; 125 g ai/ha
  Plant response rating, Barnyardgrass: 50
[9]; 31 g ai/ha
  Plant response rating, Kochia: 10
[9]; 125 g ai/ha
  Plant response rating, Kochia: 50
[10]; 31 g ai/ha
  Plant response rating, Ragweed: 20
[10]; 125 g ai/ha
  Plant response rating, Ragweed: 100
[12]; 31 g ai/ha
  Plant response rating, Galium: 90
[12]; 125 g ai/ha
  Plant response rating, Galium: 90
[14]; 31 g ai/ha
  Plant response rating, Ryegrass, Italian: 40
[14]; 125 g ai/ha
  Plant response rating, Ryegrass, Italian: 50
[15]; 31 g ai/ha
  Plant response rating, Blackgrass: 10
[15]; 125 g ai/ha
  Plant response rating, Blackgrass: 70
[16]; 31 g ai/ha
  Plant response rating, Foxtail, Green: 10
[16]; 125 g ai/ha
  Plant response rating, Foxtail, Green: 80
[17]; 31 g ai/ha
  Plant response rating, Corn: 0
[17]; 125 g ai/ha
  Plant response rating, Corn: 10
[18]; 31 g ai/ha
  Plant response rating, Barnyardgrass: 20
[18]; [21]
  Plant response rating, Barnyardgrass: 60
[20]; 31 g ai/ha
  Plant response rating, Ragweed: 80
[20]; 125 g ai/ha
  Plant response rating, Ragweed: 90

Source: patent US11292770B2, “Pyridazinone herbicides” (FMC Corporation, priority 2017, dated 2022)
